{"source": "patent US7439226B2", "about": "“Serine protease inhibitors” (The United States of America as represented by the …, priority 2003, dated 2008)", "key": {"bovine thrombin": {"target": "T1, bovine thrombin (Bos taurus, UniProt P00735)", "T1 construct": "purchased Sigma (Sigma Chemical Co., St. Louis, Mo.)", "assay": "Thrombin inhibition, fluorescent substrate N-t-Boc Leu-Arg-Arg-AMC, Ki by Dixon plots", "assay_type": "biochemical", "conditions": "read-out: Ki of SFTI-1 (nM), Thrombin; room temperature, pH 8.5", "description": "(§1) 13, 2003, and which is incorporated herein by reference."}, "[1]": {"target": "T2, Urokinase-type plasminogen activator (uPA) (Homo sapiens, UniProt P00749)", "T2 construct": "from a partially purified uPA from human urine; from tissue; host or cells: human urine", "assay": "uPA inhibition, fluorescent substrate N-t-Boc-Leu-Gly-Arg-AMC, Ki by Dixon plots", "assay_type": "biochemical", "conditions": "room temperature, pH 8.5", "description": "as §1"}, "cathepsin G": {"target": "T3, cathepsin G (Homo sapiens, UniProt P08311)", "T3 sequence (P08311 21-244)": "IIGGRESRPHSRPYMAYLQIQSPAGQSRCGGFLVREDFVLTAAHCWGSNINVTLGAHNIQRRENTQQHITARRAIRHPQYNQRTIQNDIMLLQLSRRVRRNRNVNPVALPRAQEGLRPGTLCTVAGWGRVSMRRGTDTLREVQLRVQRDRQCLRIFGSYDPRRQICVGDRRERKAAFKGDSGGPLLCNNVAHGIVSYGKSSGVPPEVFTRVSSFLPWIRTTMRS", "conditions": "background statement; cited from earlier work"}, "thrombin": {"target": "thrombin (Homo sapiens, UniProt P00734)", "conditions": "background statement; cited from earlier work"}, "Factor Xa": {"target": "Factor Xa (Homo sapiens, UniProt P00742)", "sequence (P00742 235-488 limits assumed)": "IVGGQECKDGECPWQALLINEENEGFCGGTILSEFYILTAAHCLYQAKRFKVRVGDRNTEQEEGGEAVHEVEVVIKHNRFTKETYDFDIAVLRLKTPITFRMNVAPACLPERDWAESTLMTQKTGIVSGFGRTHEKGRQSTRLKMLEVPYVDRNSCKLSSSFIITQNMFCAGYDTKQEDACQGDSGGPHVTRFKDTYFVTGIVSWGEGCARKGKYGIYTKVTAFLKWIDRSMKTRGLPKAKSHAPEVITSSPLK", "sequence (P00742 41-179 partner limits assumed)": "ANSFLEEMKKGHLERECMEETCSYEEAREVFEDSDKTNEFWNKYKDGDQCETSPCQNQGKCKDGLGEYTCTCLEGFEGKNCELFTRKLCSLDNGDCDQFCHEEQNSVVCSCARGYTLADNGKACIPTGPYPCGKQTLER", "conditions": "Luckett et al. J Mol. Biol. 1999; cited from earlier work"}, "matriptase": {"target": "matriptase (Homo sapiens, UniProt Q9Y5Y6)", "sequence (Q9Y5Y6 whole entry, species assumed)": "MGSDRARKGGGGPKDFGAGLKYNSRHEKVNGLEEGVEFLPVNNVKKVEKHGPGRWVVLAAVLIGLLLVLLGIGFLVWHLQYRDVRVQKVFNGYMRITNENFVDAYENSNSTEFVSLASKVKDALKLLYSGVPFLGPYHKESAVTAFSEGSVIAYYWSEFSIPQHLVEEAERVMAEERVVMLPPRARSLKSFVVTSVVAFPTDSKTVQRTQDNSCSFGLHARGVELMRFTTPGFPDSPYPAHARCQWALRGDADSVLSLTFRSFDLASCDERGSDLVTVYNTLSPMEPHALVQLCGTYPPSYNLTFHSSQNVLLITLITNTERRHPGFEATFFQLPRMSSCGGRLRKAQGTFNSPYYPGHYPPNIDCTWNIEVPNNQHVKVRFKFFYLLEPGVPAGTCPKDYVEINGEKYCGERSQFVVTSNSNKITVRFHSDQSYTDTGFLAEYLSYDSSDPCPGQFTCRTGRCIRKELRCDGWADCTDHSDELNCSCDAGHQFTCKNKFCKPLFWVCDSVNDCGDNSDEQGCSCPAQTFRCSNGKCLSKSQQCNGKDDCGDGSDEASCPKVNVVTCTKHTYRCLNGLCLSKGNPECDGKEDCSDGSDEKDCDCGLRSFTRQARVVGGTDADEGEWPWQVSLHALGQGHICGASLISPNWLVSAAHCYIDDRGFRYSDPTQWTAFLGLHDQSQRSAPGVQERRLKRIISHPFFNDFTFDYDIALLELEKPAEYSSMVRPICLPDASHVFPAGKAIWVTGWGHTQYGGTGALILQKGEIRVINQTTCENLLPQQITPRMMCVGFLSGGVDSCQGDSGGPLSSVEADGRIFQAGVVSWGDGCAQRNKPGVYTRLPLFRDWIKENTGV", "conditions": "background statement; cited from earlier work"}, "elastase": {"tested_on": "elastase", "conditions": "background statement; cited from earlier work"}}}
{"smiles": "CC[C@H](C)[C@@H]1NC(=O)[C@@H]2CCCN2C(=O)[C@@H]2CCCN2C(=O)[C@H]([C@@H](C)CC)NC(=O)[C@H](CO)NC(=O)[C@H](CCCCN)NC(=O)[C@H]([C@@H](C)O)NC(=O)[C@@H]2CSSC[C@H](NC1=O)C(=O)N[C@@H](Cc1ccccc1)C(=O)N1CCC[C@H]1C(=O)N[C@@H](CC(=O)O)C(=O)NCC(=O)N[C@@H](CCCNC(=N)N)C(=O)N2", "note": "[SFTI-1]", "values": [{"measurement": "Ki", "setting": "bovine thrombin", "value": 5050, "unit": "nM"}, {"measurement": "Ki", "setting": "[1]", "value": 500, "unit": "µM"}, {"measurement": "inhibitory constant (Ki) against cathepsin G", "setting": "cathepsin G", "value": "subnanomolar"}, {"measurement": "inhibitory activity against thrombin compared with matriptase", "setting": "thrombin", "value": "three orders of magnitude lower"}, {"measurement": "effect on the activity of Factor Xa", "setting": "Factor Xa", "value": "no detectable effect"}, {"measurement": "inhibitory constant (Ki) against matriptase", "setting": "matriptase", "value": "subnanomolar"}, {"measurement": "inhibitory activity against elastase compared with matriptase", "setting": "elastase", "value": "three orders of magnitude lower"}]}
